Data: patent US8399481B2, “Compounds” (Xention Ltd, priority 2009, dated 2013)
No end group written: not given here.

Key:
hKv1.3 = hKv1.3 (Homo sapiens, UniProt P22001); assay: hKv1.3 % inhibition at 1 uM (Table 1); type: cell-based; conditions: for inhibition at 1 µM: read-out: hKv1.3 % inh. 1 uM
hKv1.5 = hKv1.5 (Homo sapiens, UniProt P22460); assay: hKv1.5 % inhibition at 300 nM (Table 1); type: cell-based; conditions: for inhibition at 0.3 µM: read-out: hKv1.5 % inh. 300 nM
[1] = test system: delayed-type hypersensitivity (DTH) response; conditions: DTH model in vivo; cited from earlier work

hKv1.3, sequence (P22001 whole entry): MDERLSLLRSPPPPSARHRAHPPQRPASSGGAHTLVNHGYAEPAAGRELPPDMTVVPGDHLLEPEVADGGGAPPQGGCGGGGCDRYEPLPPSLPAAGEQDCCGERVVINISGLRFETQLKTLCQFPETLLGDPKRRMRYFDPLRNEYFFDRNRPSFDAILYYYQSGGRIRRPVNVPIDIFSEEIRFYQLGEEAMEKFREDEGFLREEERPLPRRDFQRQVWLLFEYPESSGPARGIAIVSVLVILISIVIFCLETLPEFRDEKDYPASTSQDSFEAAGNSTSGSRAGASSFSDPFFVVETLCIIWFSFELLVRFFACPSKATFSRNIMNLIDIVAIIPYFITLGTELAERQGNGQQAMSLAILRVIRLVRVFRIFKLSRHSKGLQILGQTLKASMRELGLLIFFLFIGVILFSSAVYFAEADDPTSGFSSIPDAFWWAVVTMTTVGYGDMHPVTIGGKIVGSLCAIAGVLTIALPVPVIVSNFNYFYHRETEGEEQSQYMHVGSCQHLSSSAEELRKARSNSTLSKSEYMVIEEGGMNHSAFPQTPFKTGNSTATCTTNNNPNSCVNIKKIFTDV
hKv1.5, sequence (P22460 whole entry): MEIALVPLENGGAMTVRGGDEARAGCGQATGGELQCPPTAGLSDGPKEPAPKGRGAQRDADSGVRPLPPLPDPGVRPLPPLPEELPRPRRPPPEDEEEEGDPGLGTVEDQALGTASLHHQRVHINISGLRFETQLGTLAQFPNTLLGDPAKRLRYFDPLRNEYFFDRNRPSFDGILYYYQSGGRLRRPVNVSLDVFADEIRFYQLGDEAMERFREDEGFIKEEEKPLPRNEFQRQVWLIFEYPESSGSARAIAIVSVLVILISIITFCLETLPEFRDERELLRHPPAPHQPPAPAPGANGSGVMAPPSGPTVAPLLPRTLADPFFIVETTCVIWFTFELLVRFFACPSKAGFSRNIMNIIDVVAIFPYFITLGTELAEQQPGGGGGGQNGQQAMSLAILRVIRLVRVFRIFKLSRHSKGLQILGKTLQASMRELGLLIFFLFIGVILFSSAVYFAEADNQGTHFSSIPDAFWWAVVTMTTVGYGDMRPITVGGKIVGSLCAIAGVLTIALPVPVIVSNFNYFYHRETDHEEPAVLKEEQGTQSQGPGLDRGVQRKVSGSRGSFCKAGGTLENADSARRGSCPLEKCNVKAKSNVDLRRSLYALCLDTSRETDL

Row | Compound | hKv1.3 % inh. 1 uM (hKv1.3) | hKv1.5 % inh. 300 nM (hKv1.5) | inhibition at 1 µM (hKv1.3) | inhibition at 0.3 µM (hKv1.5) | suppression of DTH response [1]
1 | CCN1Cc2ccc(N(Cc3ccc(Cl)cc3)S(=O)(=O)c3cccc(C#N)c3)cc2C1=O [Example 11, N-(4-Chloro-benzyl)-3-cyano-n-(2-ethyl-3-oxo-2,3-dihydro-1H-isoindol-5-yl)-benzene sulfonamide] | 93.8% | 86.9% | – | – | –
2 | CCN1Cc2ccc(N(Cc3ccc(Cl)cc3)S(=O)(=O)c3cn(C)cn3)cc2C1=O [Example 14, 1-Methyl-1H-imidazole-4-sulfonic acid (4-chloro-benzyl)-(2-ethyl-3-oxo-2,3-dihydro-1H-isoindol-5-yl)-amide] | – | – | 89.7% | 27.1% | –
3 | CCN1Cc2cc(N(Cc3ccc(Cl)cc3)S(=O)(=O)c3ccn(C)n3)ccc2C1=O [Example 18, 1-Methyl-1H-pyrazole-3-sulfonic acid (4-chloro-benzyl)-(2-ethyl-1-oxo-2,3-dihydro-1H-isoindol-5-yl)-amide] | – | – | 75.2% | 77.3% | –
4 | N#Cc1cccc(S(=O)(=O)N(Cc2ccc(Cl)cc2)c2ccc3c(c2)C(=O)NCC3)c1 [Example 8, N-(4-Chloro-benzyl)-3-cyano-N-(1-oxo-1,2,3,4-tetrahydro-isoquinolin-7-yl)-benzenesulfonamide] | – | – | 94.6% | 91.2% | –
5 | CCN1Cc2cc(N(Cc3ccc(Cl)cc3)S(=O)(=O)c3cccc(C#N)c3)ccc2C1=O [Example 12, N-(4-Chloro-benzyl)-3-cyano-N-(2-ethyl-1-oxo-2,3-dihydro-1H-isoindol-5-yl) benzene sulfonamide] | 93.0% | 63.2% | – | – | –
6 | CC(C)N1C(=O)c2ccc(N(Cc3ccc(Cl)cc3)S(=O)(=O)c3cn(C)cn3)cc2C1=O [Example 17, 1-Methyl-1H-imidazole-4-sulfonic acid (4-chloro-benzyl)-(2-isopropyl-1,3-dioxo-2,3-dihydro-1-H-isoindol-5-yl)-amide] | 79.7% | 58.0% | – | – | –
7 | Cn1ccc(S(=O)(=O)N(Cc2ccc(Cl)cc2)c2ccc3c(c2)C(=O)NCC3(C)C)n1 [Example 16, 1-Methyl-1H-pyrazole-3-sulfonic acid (4-chloro-benzyl)-(4,4-dimethyl-1-oxo-1,2,3,4-tetrahydro-isoquinolin-7-yl)-amide] | – | – | 88.3% | 64.2% | –
8 | Cn1ccc(S(=O)(=O)N(Cc2ccc(Cl)cc2)c2ccc3c(c2)C(=O)NCC3)n1 [Example 7, 1-Methyl-1H-pyrazole-3-sulfonic acid (4-chloro-benzyl)-(1-oxo-1,2,3,4-tetrahydro-isoquinolin-7-yl)-amide] | – | – | 95.5% | 42.6% | –
9 | CN1CCc2ccc(N(Cc3ccc(Cl)cc3)S(=O)(=O)c3ccn(C)n3)cc2C1=O [Example 9, 1-Methyl-1H-pyrazole-3-sulfonic acid (4-chloro-benzyl)-(2-methyl-1-oxo-1,2,3,4-tetrahydro-isoquinolin-7-yl)-amide] | – | – | 94.5% | 76.4% | –
10 | C=C1C[C@@]2(O)[C@@H]3CC[C@@]4(C)[C@@H]5C=CC(=O)OC[C@]5(C(C)OC(C)=O)[C@@H](OC(C)=O)[C@@H](OC(C)=O)[C@@H]4[C@@]3(C)[C@H](OC(C)=O)[C@H](OC(C)=O)[C@@]2(C)C2(C(=O)OC)O[C@H]12 (stereo partly shown) [Correolide] | – | – | – | – | effective
11 | O=c1ccc2c(OCCCCOc3ccccc3)c3ccoc3cc2o1 [PAP-1] | – | – | – | – | effective
12 | 1-Methyl-1H-imidazole-4-sulfonic acid (4-chloro-benzyl)-(2-ethyl-1-oxo-2,3-dihydro-1H-isoindol-4-yl)-amide [Example 21] | 69.8% | 23.8% | – | – | –
13 | Cn1ccc(S(=O)(=O)N(Cc2ccc(Cl)cc2)c2ccc3c(c2)C(=O)N(CCO)CC3)n1 [Example 10, 1-Methyl-1H-pyrazole-3-sulfonic acid (4-chloro-benzyl)-[2-(2-hydroxy-ethyl)-1-oxo-1,2,3,4-tetrahydro-isoquinolin-7-yl]-amide] | – | – | 94.2% | 47.1% | –
14 | O=C1c2cc(N(Cc3ccc(Cl)cc3)S(=O)(=O)c3cccnc3)ccc2CCN1CCO [Example 5, Pyridine-3-sulfonic acid (4-chloro-benzyl)-[2-(2-hydroxy-ethyl)-1-oxo-1,2,3,4-tetrahydro-isoquinolin-7-yl]-amide] | – | – | 96.4% | 76% | –
15 | CCN1CCc2ccc(N(Cc3ccc(Cl)cc3)S(=O)(=O)c3ccn(C)n3)cc2C1=O [Example 1, 1-Methyl-1H-pyrazole-3-sulfonic acid (4-chloro-benzyl)-(2-ethyl-1-oxo-1,2,3,4-tetrahydro-isoquinolin-7-yl)-amide] | – | – | 99.6% | 82.4% | –
16 | CCN1CC(C)(C)c2ccc(N(Cc3ccc(Cl)cc3)S(=O)(=O)c3cn(C)cn3)cc2C1=O [Example 6, 1-Methyl-1H-imidazole-4-sulfonic acid (4-chloro-benzyl)-(2-ethyl-4,4-dimethyl-1-oxo-1,2,3,4-tetrahydro-isoquinolin-7-yl)-amide] | – | – | 96.1% | 70.1% | –
17 | CCN1Cc2ccc(N(Cc3ccc(Cl)cc3)S(=O)(=O)c3ccn(C)n3)cc2C1=O [Example 4, 1-Methyl-1H-pyrazole-3-sulfonic acid (4-chloro-benzyl)-(2-ethyl-3-oxo-2,3-dihydro-1H-isoindol-5-yl)-amide] | – | – | 96.6% | 63.8% | –
18 | margatoxin (TIINVKCTSPKQCLPPCKAQFGQSAGAKCMNGKCKCYPH; ends and bridges not checked; cysteine pairing not given here; UniProt P40755 1-39, looked up) [MgTX] | – | – | – | – | effectively suppressed
19 | CCN1Cc2ccc(N(Cc3ccc(Cl)cc3)S(=O)(=O)c3cccnc3)cc2C1=O [Example 2, Pyridine-3-sulfonic acid (40chloro-benzyl)-(2-ethyl-3-oxo-2,3-dihydro-1H-isoindol-5-yl)-amide] | 97.2% | 65.0% | – | – | –
20 | CCN1CCc2cc(N(Cc3ccccc3)S(=O)(=O)c3ccn(C)n3)ccc2C1=O [Example 19, 1-Methyl-1H-pyrazole-3-sulfonic acid benzyl (2-ethyl-1-oxo-1,2,3,4-tetrahydro-isoquinolin-6-yl)-amide] | 74.3% | 25.4% | – | – | –
21 | CCN1Cc2cc(N(Cc3ccc(Cl)cc3)S(=O)(=O)c3cn(C)cn3)ccc2C1=O [Example 22, 1-Methyl-1H-imidazole-4-sulfonic acid (4-chloro-benzyl)-(2-ethyl-1-oxo-2,3-dihydro-1H-isoindol-5-yl)-amide] | – | – | 67.9% | 30.6% | –
22 | CCN1CCc2cc(N(Cc3ccccc3)S(=O)(=O)c3cn(C)cn3)ccc2C1=O [Example 23, 1-Methyl-1H-imidazole-4-sulfonic acid benzyl-(2-ethyl-1-oxo-1,2,3,4-tetrahydro-isoquinolin-6-yl)-amide] | – | – | 58% | 26.5% | –
23 | O=C1NCCc2ccc(N(Cc3ccc(Cl)cc3)S(=O)(=O)c3cccnc3)cc21 [Example 13, Pyridine-3-sulfonic acid (4-chloro-benzyl)-(1-oxo-1,2,3,4-tetrahydro-isoquinolin-7-yl)-amide] | – | – | 90.5% | 36% | –
24 | CC1(C)CNC(=O)c2cc(N(Cc3ccc(Cl)cc3)S(=O)(=O)c3cccnc3)ccc21 [Example 15] | 88.9% | 70.0% | – | – | –
25 | N-(4-Chloro-benzyl)-3-cyano-N-(1-oxo-1,2,3,4-tetrahydro-isoquinolin-7-yl)-benzenesulfonamide [Example 3] | 97.2% | 87.8% | – | – | –
26 | Cn1cnc(S(=O)(=O)N(Cc2ccc(Cl)cc2)c2ccc3c(c2)C(=O)NCC3(C)C)c1 [Example 20, 1-Methyl-1H-imidazole-4-sulfonic acid (4-chloro-benzyl)-(4,4-dimethyl-1-oxo-1,2,3,4-tetrahydro-isoquinolin-7-yl)-amide] | – | – | 72.6% | 34.1% | –
